In US6358947B1 (American Home Products Corporation, priority 1999, dated 2002):

What was measured:
Format in all cases: cell-based
human PR [1] = molecular target: T1, human PR (Homo sapiens, UniProt P06401); assay: Cotransfection assay, PR agonist, CV-1 cells
T1 sequence (P06401 1-933): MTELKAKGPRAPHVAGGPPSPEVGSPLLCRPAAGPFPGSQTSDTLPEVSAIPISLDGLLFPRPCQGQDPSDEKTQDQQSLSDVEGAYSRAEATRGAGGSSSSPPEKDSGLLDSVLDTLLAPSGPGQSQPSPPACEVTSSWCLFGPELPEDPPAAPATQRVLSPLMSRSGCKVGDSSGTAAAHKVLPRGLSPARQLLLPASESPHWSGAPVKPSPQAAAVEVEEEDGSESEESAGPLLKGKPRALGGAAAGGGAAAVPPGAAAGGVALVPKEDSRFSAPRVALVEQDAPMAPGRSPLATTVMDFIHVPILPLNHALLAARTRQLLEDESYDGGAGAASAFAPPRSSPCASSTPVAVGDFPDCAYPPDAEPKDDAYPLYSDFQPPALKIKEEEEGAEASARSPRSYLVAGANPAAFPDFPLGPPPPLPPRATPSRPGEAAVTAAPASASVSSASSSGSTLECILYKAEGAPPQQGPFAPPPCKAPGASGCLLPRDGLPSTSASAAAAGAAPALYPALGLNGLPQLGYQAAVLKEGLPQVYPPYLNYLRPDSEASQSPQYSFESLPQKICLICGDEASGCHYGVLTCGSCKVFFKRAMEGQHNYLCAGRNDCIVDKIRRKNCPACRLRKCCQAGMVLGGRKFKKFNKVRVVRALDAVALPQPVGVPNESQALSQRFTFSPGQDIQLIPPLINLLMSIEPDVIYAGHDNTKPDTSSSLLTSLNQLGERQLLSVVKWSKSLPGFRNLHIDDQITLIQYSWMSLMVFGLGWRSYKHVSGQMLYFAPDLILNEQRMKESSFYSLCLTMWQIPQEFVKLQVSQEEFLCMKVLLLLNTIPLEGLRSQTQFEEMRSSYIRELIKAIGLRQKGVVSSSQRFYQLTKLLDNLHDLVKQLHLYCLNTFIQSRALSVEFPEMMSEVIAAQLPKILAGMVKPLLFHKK
Excerpt: (§1) The cotransfection assay provides a method for identifying functional agonists and partial agonists that mimic, or antagonists that inhibit, the effect of native hormones, and for quantifying their activity for responsive intracellular receptor (IR) proteins. In this regard, the cotransfection assay mimics an in vivo system in the laboratory. Importantly, activity in the cotransfection assay correlates very well with known in vivo activity, such that the cotransfection assay functions as a qualitative and quantitative predictor of a tested compound's in vivo pharmacology.
(§2) In the cotransfection assay, a cloned cDNA for an IR (e.g., human PR, AR or GR) under the control of a constitutive promoter (e.g., the SV 40 promoter) is introduced by transfection (a procedure to induce cells to take up foreign genes) into a background cell substantially devoid of endogenous IRs. This introduced gene directs the recipient cells to make the IR protein of interest. A second gene is also introduced (cotransfected) into the same cells in conjunction with the IR gene. This second gene, comprising the cDNA for a reporter protein, such as firefly luciferase (LUC), is controlled by an appropriate hormone responsive promoter containing a hormone response element (HRE). This reporter plasmid functions as a reporter for the transcription-modulating activity of the target IR. Thus, the reporter acts as a surrogate for the products (mRNA, then protein) normally expressed by a gene under control of the target receptor and its native hormone.
(§3) The cotransfection assay can detect small molecule agonists or antagonists of target IRs. Exposing the transfected cells to an agonist ligand compound increases reporter activity in the transfected cells. This activity can be conveniently measured, e.g., by increasing luciferase production, which reflects compound-dependent, IR-mediated increases in reporter transcription. […] Increasing concentrations of a suspected antagonist will decrease the reporter signal (e.g., luciferase production). The cotransfection assay is therefore useful to detect both agonists and antagonists of specific IRs. Furthermore, it determines not only whether a compound interacts with a particular IR, but whether this interaction mimics (agonizes) or blocks (antagonizes) the effects of the native regulatory molecules on target gene expression, as well as the specificity and strength of this interaction.

hER [2] = molecular target: T2, hER (Homo sapiens, UniProt P03372); assay: Cotransfection assay, ER agonist; conditions: read-out: ER Potency Agon
T2 sequence (P03372 1-595): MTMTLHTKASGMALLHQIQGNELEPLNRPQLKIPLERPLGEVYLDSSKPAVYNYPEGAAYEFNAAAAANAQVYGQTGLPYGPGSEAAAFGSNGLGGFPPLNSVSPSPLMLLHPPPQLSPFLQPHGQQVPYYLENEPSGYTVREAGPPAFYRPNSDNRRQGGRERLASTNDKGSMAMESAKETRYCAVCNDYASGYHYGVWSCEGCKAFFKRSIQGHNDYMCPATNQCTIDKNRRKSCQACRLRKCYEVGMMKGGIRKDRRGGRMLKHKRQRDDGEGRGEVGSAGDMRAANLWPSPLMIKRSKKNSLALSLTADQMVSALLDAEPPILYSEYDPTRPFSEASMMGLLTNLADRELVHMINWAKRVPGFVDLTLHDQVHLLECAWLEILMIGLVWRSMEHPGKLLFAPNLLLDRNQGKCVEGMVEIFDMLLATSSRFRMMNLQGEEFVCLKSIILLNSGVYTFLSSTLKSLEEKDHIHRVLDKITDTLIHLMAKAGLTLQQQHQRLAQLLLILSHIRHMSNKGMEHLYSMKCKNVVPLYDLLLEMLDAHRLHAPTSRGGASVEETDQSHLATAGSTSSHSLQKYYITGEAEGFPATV
Excerpt: as §1, §2, §3

hER [3] = molecular target: T2, hER; assay: Cotransfection assay, ER antagonist; conditions: read-out: ER Potency Antag
Excerpt: as §1, §2, §3

hMR = molecular target: T3, hMR (Homo sapiens, UniProt P08235); assay: Cotransfection assay, MR antagonist; conditions: read-out: MR Potency Antag
T3 sequence (P08235 1-984): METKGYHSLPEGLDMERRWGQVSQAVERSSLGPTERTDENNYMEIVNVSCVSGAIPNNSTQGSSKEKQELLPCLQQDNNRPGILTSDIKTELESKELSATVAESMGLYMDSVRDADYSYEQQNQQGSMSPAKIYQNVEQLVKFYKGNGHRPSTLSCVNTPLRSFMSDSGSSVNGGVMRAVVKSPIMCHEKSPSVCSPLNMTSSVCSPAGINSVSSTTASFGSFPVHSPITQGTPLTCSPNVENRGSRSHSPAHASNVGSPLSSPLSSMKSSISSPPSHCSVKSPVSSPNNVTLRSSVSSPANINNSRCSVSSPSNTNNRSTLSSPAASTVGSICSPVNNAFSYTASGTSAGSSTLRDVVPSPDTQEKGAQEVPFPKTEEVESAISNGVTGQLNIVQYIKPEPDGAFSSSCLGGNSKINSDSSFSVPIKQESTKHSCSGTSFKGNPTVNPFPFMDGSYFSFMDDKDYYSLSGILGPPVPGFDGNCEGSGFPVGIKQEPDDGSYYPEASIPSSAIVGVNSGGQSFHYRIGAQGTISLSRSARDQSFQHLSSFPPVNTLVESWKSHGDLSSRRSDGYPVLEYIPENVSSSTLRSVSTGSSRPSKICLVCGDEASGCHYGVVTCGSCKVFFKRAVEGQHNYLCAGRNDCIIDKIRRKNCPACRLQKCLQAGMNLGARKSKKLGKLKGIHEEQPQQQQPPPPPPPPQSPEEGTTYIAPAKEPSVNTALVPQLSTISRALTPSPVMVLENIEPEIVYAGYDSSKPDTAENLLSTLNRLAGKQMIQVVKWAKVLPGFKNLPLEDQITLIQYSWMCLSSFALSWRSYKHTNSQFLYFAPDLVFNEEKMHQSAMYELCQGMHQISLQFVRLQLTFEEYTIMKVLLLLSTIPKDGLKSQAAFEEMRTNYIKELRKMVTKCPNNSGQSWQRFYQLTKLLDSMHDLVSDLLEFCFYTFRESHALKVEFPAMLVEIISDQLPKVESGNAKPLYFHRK
Excerpt: as §1, §2, §3

hGR = molecular target: T4, hGR (Homo sapiens, UniProt P04150); assay: Cotransfection assay, GR antagonist; conditions: read-out: GR Potency Antag
T4 sequence (P04150 1-777): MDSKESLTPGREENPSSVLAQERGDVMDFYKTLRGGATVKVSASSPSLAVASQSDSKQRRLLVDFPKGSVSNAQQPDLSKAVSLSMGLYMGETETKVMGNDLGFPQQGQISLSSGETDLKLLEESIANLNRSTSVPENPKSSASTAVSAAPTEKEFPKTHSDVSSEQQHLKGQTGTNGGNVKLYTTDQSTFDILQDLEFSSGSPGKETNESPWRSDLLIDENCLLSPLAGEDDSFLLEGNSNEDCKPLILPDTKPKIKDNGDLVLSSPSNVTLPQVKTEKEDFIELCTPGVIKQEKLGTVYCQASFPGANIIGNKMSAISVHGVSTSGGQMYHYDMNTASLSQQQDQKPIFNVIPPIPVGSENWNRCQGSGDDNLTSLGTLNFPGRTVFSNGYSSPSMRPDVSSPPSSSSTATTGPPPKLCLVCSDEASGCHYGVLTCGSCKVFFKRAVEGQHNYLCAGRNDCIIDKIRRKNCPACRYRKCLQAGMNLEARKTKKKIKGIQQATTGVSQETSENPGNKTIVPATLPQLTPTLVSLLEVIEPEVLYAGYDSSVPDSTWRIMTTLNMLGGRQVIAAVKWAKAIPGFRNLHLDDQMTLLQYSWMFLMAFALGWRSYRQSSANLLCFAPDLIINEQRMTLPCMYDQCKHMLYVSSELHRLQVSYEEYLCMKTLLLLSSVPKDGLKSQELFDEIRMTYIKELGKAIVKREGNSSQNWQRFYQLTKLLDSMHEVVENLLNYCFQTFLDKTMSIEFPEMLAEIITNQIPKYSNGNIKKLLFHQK
Excerpt: as §1, §2, §3

human PR [4] = molecular target: T1, human PR; assay: Cotransfection assay, PR antagonist, CV-1 cells; conditions: percent maximal response relative to reference antagonist
Excerpt: as §1, §2, §3

CC(C)C(=O)Nc1ccc([N+](=O)[O-])c(C(F)(F)F)c1 [Flut, reference compound]
EC50 (human PR [1]; Table 2, read-out: PR Potency Agon): > 10 µM | EC50 (hER [2]): > 10 µM | IC50 (hER [3]): > 10 µM | IC50 (hMR): > 10 µM

CC(=O)S[C@@H]1CC2=CC(=O)CC[C@]2(C)[C@H]2CC[C@@]3(C)[C@@H](CC[C@@]34CCC(=O)O4)[C@H]12 [Spir, reference compound]
EC50 (hER [2]): > 10 µM | IC50 (hER [3]): > 10 µM | IC50 (hGR): 2 µM

CN(C)c1ccc([C@H]2C[C@]3(C)[C@@H](CC[C@]3(O)CCCO)[C@@H]3CCC4=CC(=O)CCC4=C32)cc1 [ZK299, reference compound]
PR Agonist CV-1 Cells Efficacy (human PR [1]): na (key: na = not active (i.e. efficacy of <20 and potency of >10,000)) | PR Antagonist CV-1 Cells Efficacy (human PR [4]): 99%
